# Results from the supplement of paper PMC10307832.
# Tests used:
# Assay in all cases: relative viability (nuclei count vs DMSO), 5 days (fraction); higher = more cells survive
# [1] = compound: CC1=CC(=NN1)NC2=CC(=NC(=N2)/C=C/C3=CC=CC=C3)N4CCN(CC4)C + CC(=O)Nc1cccc(-n2c(=O)n(C3CC3)c(=O)c3c(Nc4ccc(I)cc4F)n(C)c(=O)c(C)c32)c1 [Trametinib] (partner 0.02 µM)
# How it was run: (§1)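 Relative viability is defined as nuclei in treated wells over nuclei in vehicle wells. Duplicate plates were run and medians reported. Lung cancer cell lines in 1536-well plates were dosed by pin tool one day after seeding, with one drug or with a fixed anchor-drug dose plus five library-drug doses (not always all listed) in √10 steps, and nuclei were counted after 5 days.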
# Obatoclax + Pictilisib = compound: COC1=CC(c2cc3ccccc3[nH]2)=N/C1=C\c1[nH]c(C)cc1C [Obatoclax] + CS(=O)(=O)N1CCN(Cc2cc3nc(-c4cccc5[nH]ncc45)nc(N4CCOCC4)c3s2)CC1 [Pictilisib] (partner 1 µM)
# How it was run: as §1
# Obatoclax + Tozasertib = compound: COC1=CC(c2cc3ccccc3[nH]2)=N/C1=C\c1[nH]c(C)cc1C [Obatoclax] + Cc1cc(Nc2cc(N3CCN(C)CC3)nc(Sc3ccc(NC(=O)C4CC4)cc3)n2)n[nH]1 [Tozasertib] (partner 0.1 µM)
# How it was run: as §1
Cell Line,relative viability ([1]; first compound 0.08 µM),relative viability ([1]; first compound 0.253 µM),relative viability ([1]; first compound 0.8 µM),relative viability ([1]; first compound 2.53 µM),relative viability ([1]; first compound 8 µM),relative viability (Obatoclax + Pictilisib; first compound 0.01 µM),relative viability (Obatoclax + Pictilisib; first compound 0.03162 µM),relative viability (Obatoclax + Pictilisib; first compound 0.1 µM),relative viability (Obatoclax + Pictilisib; first compound 0.3162 µM),relative viability (Obatoclax + Pictilisib; first compound 1 µM),relative viability (Obatoclax + Tozasertib; first compound 0.01 µM),relative viability (Obatoclax + Tozasertib; first compound 0.03162 µM),relative viability (Obatoclax + Tozasertib; first compound 0.1 µM),relative viability (Obatoclax + Tozasertib; first compound 0.3162 µM),relative viability (Obatoclax + Tozasertib; first compound 1 µM)
201T,0.713,0.741,0.674,0.664,0.649,0.679,0.648,0.741,0.678,0.687,0.896,0.94,0.93,0.876,1.04
A549,–,–,–,–,–,0.509,0.7,0.448,0.442,0.0671,–,–,–,–,–
A-427,0.632,0.6,0.76,0.451,0.215,0.727,0.698,0.593,0.719,0.615,0.164,0.24,0.243,0.212,0.191
ABC-1,–,–,–,–,–,0.72,0.929,0.737,0.468,0.26,0.181,0.17,0.177,0.209,0.223
BEN,0.901,1.07,1.02,0.895,0.31,0.534,0.57,0.447,0.54,0.587,0.491,0.467,–,0.626,0.506
CAL-12T,0.362,0.292,0.259,0.102,0.104,0.395,0.472,0.396,0.223,0.395,0.389,0.326,0.36,0.153,0.0881
COR-L23,0.549,0.244,0.574,0.102,0.0853,0.792,0.946,0.737,0.252,0.154,0.233,0.182,0.217,0.111,0.108
COR-L 105,0.427,0.453,0.416,0.276,0.27,0.407,0.47,0.495,0.328,0.286,0.381,0.316,0.345,0.284,0.248
Calu-6,–,–,–,–,–,0.91,0.963,0.731,0.491,0.105,–,–,–,–,–
ChaGo-K-1,0.937,0.887,0.807,0.753,0.19,0.77,0.504,–,0.675,0.877,0.247,0.24,0.243,0.24,0.235
EBC-1,–,–,–,–,–,0.376,0.284,0.257,0.214,0.177,–,–,–,–,–
EKVX,0.387,0.368,0.394,0.352,0.137,0.426,0.427,0.507,0.41,0.355,0.371,0.357,0.466,0.385,0.394
EMC-BAC-2,0.899,0.698,0.938,0.691,0.283,0.539,0.559,0.521,0.522,0.51,0.279,0.294,0.25,0.289,0.263
EPLC-272H,0.251,0.261,0.292,0.213,0.126,0.338,0.324,0.315,0.273,0.343,0.255,0.229,0.343,0.326,0.545
H3255,0.636,0.45,0.665,0.608,0.271,0.476,0.491,0.572,0.456,0.434,0.6,0.796,0.513,0.638,0.73
HARA,0.824,0.448,0.65,0.148,0.0692,0.449,0.445,0.426,0.379,0.352,0.101,0.154,0.146,0.124,0.132
HCC-15,0.371,0.378,0.396,0.278,0.0994,0.737,0.658,0.744,0.686,0.471,0.371,0.35,0.463,0.456,0.287
HCC-44,1.04,1.06,1.04,1.09,0.677,0.69,0.552,0.577,0.583,0.246,0.907,1.03,0.556,0.376,0.196
HCC-78,0.763,0.605,0.877,0.647,0.324,0.179,0.207,–,0.158,0.2,0.338,0.404,0.664,0.399,0.344
HCC-366,0.334,0.372,0.253,0.0375,0.0236,0.136,0.151,0.172,0.159,0.12,0.1,0.117,0.134,0.0528,0.0652
HCC-827,0.507,0.405,0.513,0.427,0.273,1.04,0.948,0.953,0.916,1.04,0.389,0.418,0.44,0.412,0.411
HOP-62,0.382,0.297,0.36,0.337,0.163,0.649,0.803,0.449,0.761,0.757,0.357,0.343,0.353,0.393,0.299
IA-LM,–,–,–,–,–,0.345,0.326,0.315,0.113,0.0716,–,–,–,–,–
LC-2-ad,0.873,0.89,0.868,0.463,0.196,0.497,0.563,0.602,0.357,0.154,0.465,0.422,0.44,0.387,0.355
LCLC-97TM1,0.186,0.142,0.209,0.182,0.0966,0.18,0.201,0.325,0.139,0.154,0.268,0.255,0.232,0.215,0.21
LCLC-103H,0.667,0.641,0.677,0.651,0.528,0.602,0.565,0.719,0.612,0.65,0.498,0.472,0.505,0.477,0.553

Cell Line,relative viability ([1]; first compound 0.08 µM),relative viability ([1]; first compound 0.253 µM),relative viability ([1]; first compound 0.8 µM),relative viability ([1]; first compound 2.53 µM),relative viability ([1]; first compound 8 µM),relative viability (Obatoclax + Pictilisib; first compound 0.01 µM),relative viability (Obatoclax + Pictilisib; first compound 0.03162 µM),relative viability (Obatoclax + Pictilisib; first compound 0.1 µM),relative viability (Obatoclax + Pictilisib; first compound 0.3162 µM),relative viability (Obatoclax + Pictilisib; first compound 1 µM),relative viability (Obatoclax + Tozasertib; first compound 0.01 µM),relative viability (Obatoclax + Tozasertib; first compound 0.03162 µM),relative viability (Obatoclax + Tozasertib; first compound 0.1 µM),relative viability (Obatoclax + Tozasertib; first compound 0.3162 µM),relative viability (Obatoclax + Tozasertib; first compound 1 µM)
LK-2,0.836,0.48,0.697,0.417,0.129,0.566,0.639,0.655,0.502,0.581,0.194,0.175,0.197,0.208,0.149
LOU-NH91,0.767,0.823,0.754,0.783,0.439,0.541,0.503,0.505,0.469,0.533,0.658,0.655,0.513,0.598,0.489
LU99A,0.54,0.311,0.532,0.328,0.165,0.337,0.298,0.364,0.263,0.2,0.304,0.28,0.287,0.288,0.233
LXF-289,0.637,0.623,0.637,0.592,0.442,0.778,0.773,0.751,0.72,0.694,0.192,0.216,0.215,0.168,0.131
NCI-H23,0.302,0.317,0.257,0.142,0.118,0.43,0.442,0.57,0.4,0.197,0.378,0.484,0.454,0.301,0.241
NCI-H322M,0.485,0.57,0.811,0.337,0.327,0.545,0.484,0.665,0.467,0.5,0.505,0.451,–,0.463,0.344
NCI-H358,0.124,0.123,0.128,0.0733,0.0762,0.322,0.297,0.261,0.288,0.23,0.105,0.117,0.0958,0.0729,0.065
NCI-H441,0.434,0.426,0.42,0.141,0.0993,0.442,0.451,0.412,0.338,0.348,0.497,0.677,0.666,0.52,0.385
NCI-H460,0.171,0.0318,0.129,0.0109,0.0042,0.401,0.294,0.136,0.344,0.329,0.419,0.504,0.424,0.443,0.188
NCI-H520,0.758,0.531,0.543,0.12,0.111,0.3,0.336,0.318,0.268,0.245,0.42,0.434,0.492,0.402,0.295
NCI-H522,0.856,0.676,0.823,0.688,0.362,–,–,–,–,–,0.656,0.429,0.605,0.545,0.539
NCI-H596,0.846,1.07,0.839,0.4,0.216,0.416,0.357,0.365,0.359,0.296,0.911,0.915,0.837,0.564,0.597
NCI-H647,0.504,0.282,0.377,0.109,0.0926,0.469,0.393,0.118,0.33,0.153,0.254,0.304,0.301,0.222,0.112
NCI-H661,0.593,0.478,0.628,0.256,0.242,0.392,0.363,0.33,–,0.451,0.365,0.336,0.393,0.355,0.357
NCI-H727,0.355,0.347,0.429,0.347,0.285,0.33,0.456,0.701,0.339,0.253,0.581,0.58,0.755,0.509,0.707
NCI-H838,0.526,0.541,0.44,0.119,0.12,0.52,0.508,0.421,0.35,0.247,0.292,0.253,0.292,0.25,0.221
NCI-H1299,–,–,–,–,–,0.74,0.937,0.637,0.447,0.129,–,–,–,–,–
NCI-H1355,0.457,0.435,0.415,0.334,0.151,0.405,0.412,0.406,0.384,0.327,0.602,0.588,0.623,0.538,0.466
NCI-H1563,–,–,–,–,–,0.615,0.639,0.644,0.655,0.634,–,–,–,–,–
NCI-H1623,–,–,–,–,–,–,–,–,–,–,0.428,0.422,0.426,0.451,0.38
NCI-H1648,0.47,0.412,0.497,0.435,0.316,–,–,–,–,–,0.515,0.499,1.01,0.465,0.361
NCI-H1703,–,–,–,–,–,0.263,0.221,0.216,0.203,0.2,–,–,–,–,–
NCI-H1792,0.427,0.402,0.396,0.195,0.0298,0.31,0.26,–,0.281,0.377,–,–,–,–,–
NCI-H2342,1,0.869,0.958,0.962,0.602,–,–,–,–,–,0.516,0.594,0.656,0.587,0.633
SW 900,0.957,0.625,0.839,0.215,0.0981,–,–,–,–,–,0.67,0.571,0.499,0.33,0.281
